{"source": "patent US11376264B2", "about": "“Use of bromodomain-containing protein 9 antagonists in combination with vitamin D receptor agonists in diabetes treatment” (Salk Institute for Biological Studies, priority 2017, dated 2022)", "tested_on": "db/db (BKS) mice", "test": "db/db (BKS) mouse T2D model treatment", "format": "in vivo", "procedure": "The following mice strains were from Jackson: VDR KO (B6.129S4-Vdrtm1Mbd/J), B6 db (B6.BKS(D)-Leprdb/J), BKS db (BKS.Cg-Dock7m+/+ Leprdb/J), C57BL6/J. Animals were maintained in a specific pathogen-free animal facility on a 12-hr light-dark cycle at an ambient temperature of 23° C. Water and food were provided ad lib. All animal experiments used age-matched male mice. VDR KO and control littermate mice were maintained on a VDR KO rescue diet containing 21% calcium, 0.67% phosphorus, and 20% lactose supplemented with 4.4 U vitamin D per gram diet.\ndb/db (B6) mice were grouped based on glucose levels at the age of 5 weeks. Treatments were started from 6 weeks and animals were treated with vehicle (30% 2-Hydroxypropyl-β Cyclodextrin, Sigma, H-107) or drugs 3 times a week. […] For db/db (BKS) mice, treatment started from age of 10 weeks.\nFor immunohistochemistry, FFPE tissues sections were deparaffinized and antigen retrieval performed using Vector Antigen Unmasking buffer (H3301). VectaStain ABC kit and ImmPACT DAB substrate (Vector Lab) were used to develop signal. Antibodies used: Pro-insulin (R&D, MAB13361, 1:100), insulin (Abcam, ab7842, 1:100), MAFA (Novus, NB400-137, 1:50), NKX6-1 (Cell Signaling, 54551, 1:100), and Glucagon (Abcam, ab82270, 1:100). DAPI-containing mounting media ([…] mounting medium for fluorescence) was used for nuclear staining. Immunostaining was visualized by ZEISS 780 confocal microscopy analysis.\nELISA were performed per manufacturer's instructions: mouse insulin (Millipore, EZRMI-13K), mouse proinsulin (Mercodia, NC9088881).", "data": [{"smiles": "C=C1/C(=C\\C=C2/CCC[C@]3(C)[C@@H]([C@H](C)/C=C/[C@@H](O)C4CC4)CC[C@@H]23)C[C@@H](O)C[C@@H]1O", "note": "[Cal, calcipotriol]", "values": [{"measurement": "serum insulin levels", "setting": "fasting", "result": "higher fasting serum insulin levels"}, {"measurement": "fasting blood glucose / glucose management", "setting": "i.p. 3 times a week", "result": "only limited improvements"}, {"measurement": "ER stress markers Calnexin and PERK", "setting": "immunohistochemistry of pancreatic sections", "result": "reduced"}, {"measurement": "intracellular insulin level (immunofluorescence)", "setting": "pancreas sections", "result": "rescued"}]}]}
